Reference: US9302999B2, “Substituted triazoles as herbicides” (E. I. DU PONT DE NEMOURS AND COMPANY, priority 2012, dated 2016)

Experiments:
Type in all cases: in vivo
[1] = system: lambsquarters (Chenopodium album); test: Test D pre-/postemergence: lambsquarters
Excerpt: (§1) Seeds of plant species selected from bluegrass (annual bluegrass, Poa annua), blackgrass (Alopecurus myosuroides), canarygrass (Phalaris minor), chickweed (common chickweed, Stellaria media), galium (catchweed bedstraw, Galium aparine), bromegrass, downy (downy bromegrass, Bromus tectorum), field poppy (Papaver rhoeas), field violet (Viola arvensis), foxtail, green (green foxtail, Setaria viridis), deadnettle (henbit deadnettle, Lamium amplexicaule), ryegrass, Italian (Italian ryegrass, Lolium multiflorum), kochia (Kochia scoparia), lambsquarters (Chenopodium album), oilseed rape (Brassica napus), pigweed (Amaranthus retroflexus), Russian thistle (Salsola iberica), chamomile (scentless chamomile, Matricaria inodora), speedwell (bird's-eye speedwell, Veronica persica), barley, spring (spring barley, Hordeum vulgare), wheat, spring (spring wheat, Triticum aestivum), buckwheat, wild (wild buckwheat, Polygonum convolvulus), mustard, wild (wild mustard, Sinapis arvensis), oat, wild (wild oat, Avena fatua), radish, wild (wild radish, Raphanus raphanistrum), windgrass (Apera spica-venti), barley, winter (winter barley, Hordeum vulgare), and wheat, winter (winter wheat, Triticum aestivum) were planted into a silt loam soil and treated preemergence with test chemicals formulated in a non-phytotoxic solvent mixture which included a surfactant. At the same time, these same crop and weed species were planted in pots containing the planting medium comprising spaghnum peat moss, vermiculite, wetting agent and starter nutrients and treated with postemergence applications of the test chemicals formulated in the same manner. Plants ranged in height from 2 to 18 cm (1- to 4-leaf stage).
(§2) Treated plants and controls were maintained in a controlled growth environment for 14 to 21 days after which time all species were compared to controls and visually evaluated. Plant response ratings, summarized in Table D, are based on a scale of 0 to 100 where 0 is no effect and 100 is complete control. A dash (-) response means no test result.

[2] = system: Russian thistle (Salsola iberica); test: Test D pre-/postemergence: Russian thistle
Summary of the method: (§3)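 Scores run from 0 (no effect) to 100 (complete control), assigned by visual comparison with controls after 14 to 21 days in a controlled environment. Both preemergence application to silt loam and postemergence application to 1- to 4-leaf plants were tested.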

[3] = system: barley, spring (spring barley, Hordeum vulgare); test: Test D pre-/postemergence: barley, spring
Summary of the method: as §3

[4] = system: barley, winter (winter barley, Hordeum vulgare); test: Test D pre-/postemergence: barley, winter
Excerpt: as §1, §2

[5] = system: speedwell (bird's-eye speedwell, Veronica persica); test: Test D pre-/postemergence: speedwell
Excerpt: as §1, §2

[6] = Postemergence, 31 g ai/ha, scale 0 to 100 (0 no effect, 100 complete control)
[7] = Postemergence, 62 g ai/ha, scale 0 to 100 (0 no effect, 100 complete control)
[8] = Postemergence, 125 g ai/ha, scale 0 to 100, 0 no effect, 100 complete control
[9] = Postemergence, 250 g ai/ha, scale 0 to 100 (0 no effect, 100 complete control)
[10] = Postemergence, 16 g ai/ha, scale 0 to 100
[11] = Preemergence, 31 g ai/ha, scale 0 to 100, 0 no effect, 100 complete control
[12] = Preemergence, 62 g ai/ha, scale 0 to 100
[13] = Preemergence, 125 g ai/ha, scale 0 to 100
[14] = Preemergence, 250 g ai/ha, scale 0 to 100
[15] = Preemergence, 16 g ai/ha, scale 0 to 100, 0 no effect, 100 complete control

## Cc1nn(-c2ccc(C(F)(F)F)cn2)nc1Oc1ccnc(C(F)(F)F)c1 [Compound 23]
[1]; [6]
  Plant response rating: Lambsquarters: 30
[1]; [7]
  Plant response rating: Lambsquarters: 80
[1]; [8]
  Plant response rating: Lambsquarters: 100
[1]; [9]
  Plant response rating: Lambsquarters: 100
[1]; [10]
  Plant response rating, Lambsquarters: 30
[2]; [6]
  Plant response rating: Russian Thistle: 50
[2]; [7]
  Plant response rating: Russian Thistle: 70
[2]; [8]
  Plant response rating: Russian Thistle: 90
[2]; [9]
  Plant response rating: Russian Thistle: 100
[2]; [10]
  Plant response rating, Russian Thistle: 50
[3]; [6]
  Plant response rating: Barley, Spring: 0
[3]; [7]
  Plant response rating: Barley, Spring: 10
[3]; [8]
  Plant response rating: Barley, Spring: 10
[3]; [9]
  Plant response rating: Barley, Spring: 15
[3]; [10]
  Plant response rating, Barley, Spring: 0
[4]; [6]
  Plant response rating: Barley, Winter: 0
[4]; [7]
  Plant response rating: Barley, Winter: 10
[4]; [8]
  Plant response rating: Barley, Winter: 10
[4]; [9]
  Plant response rating: Barley, Winter: 20
[4]; [10]
  Plant response rating, Barley, Winter: 0
[5]; [6]
  Plant response rating: Speedwell: 10
[5]; [7]
  Plant response rating: Speedwell: 20
[5]; [8]
  Plant response rating: Speedwell: 50
[5]; [9]
  Plant response rating: Speedwell: 60
[5]; [10]
  Plant response rating, Speedwell: 5

## Cc1nn(-c2ccc(C(F)(F)F)cn2)nc1Cc1cccc(C(F)(F)F)c1 [Compound 106]
[1]; [6]
  Plant response rating: Lambsquarters: 30
[1]; [7]
  Plant response rating: Lambsquarters: 30
[1]; [8]
  Plant response rating: Lambsquarters: 50
[1]; [9]
  Plant response rating: Lambsquarters: 90
[1]; [10]
  Plant response rating, Lambsquarters: 20
[1]; [11]
  Plant response rating, Lambsquarters: 40
[1]; [12]
  Plant response rating, Lambsquarters: 40
[1]; [13]
  Plant response rating, Lambsquarters: 40
[1]; [14]
  Plant response rating, Lambsquarters: 40
[2]; [6]
  Plant response rating: Russian Thistle: 25
[2]; [7]
  Plant response rating: Russian Thistle: 30
[2]; [8]
  Plant response rating: Russian Thistle: 60
[2]; [9]
  Plant response rating: Russian Thistle: 100
[2]; [10]
  Plant response rating, Russian Thistle: 20
[2]; [11]
  Plant response rating, Russian Thistle: 0
[2]; [12]
  Plant response rating, Russian Thistle: 0
[2]; [13]
  Plant response rating, Russian Thistle: 0
[2]; [14]
  Plant response rating, Russian Thistle: 0
[3]; [6]
  Plant response rating: Barley, Spring: 10
[3]; [7]
  Plant response rating: Barley, Spring: 15
[3]; [8]
  Plant response rating: Barley, Spring: 20
[3]; [9]
  Plant response rating: Barley, Spring: 30
[3]; [10]
  Plant response rating, Barley, Spring: 5
[3]; [11]
  Plant response rating, Barley, Spring: 0
[3]; [12]
  Plant response rating, Barley, Spring: 0
[3]; [13]
  Plant response rating, Barley, Spring: 0
[3]; [14]
  Plant response rating, Barley, Spring: 0
[4]; [6]
  Plant response rating: Barley, Winter: 5
[4]; [7]
  Plant response rating: Barley, Winter: 5
[4]; [8]
  Plant response rating: Barley, Winter: 5
[4]; [9]
  Plant response rating: Barley, Winter: 10
[4]; [10]
  Plant response rating, Barley, Winter: 0
[4]; [11]
  Plant response rating, Barley, Winter: 0
[4]; [12]
  Plant response rating, Barley, Winter: 0
[4]; [13]
  Plant response rating, Barley, Winter: 0
[4]; [14]
  Plant response rating, Barley, Winter: 20
[5]; [6]
  Plant response rating: Speedwell: 0
[5]; [7]
  Plant response rating: Speedwell: 0
[5]; [8]
  Plant response rating: Speedwell: 90
[5]; [9]
  Plant response rating: Speedwell: 90
[5]; [10]
  Plant response rating, Speedwell: 0

## Cc1nn(-c2ccc(C(F)(F)F)cc2)nc1Oc1ccnc(C(F)(F)F)c1 [Compound 120]
[1]; [6]
  Plant response rating: Lambsquarters: 98
[1]; [7]
  Plant response rating: Lambsquarters: 100
[1]; [8]
  Plant response rating: Lambsquarters: 100
[1]; [9]
  Plant response rating: Lambsquarters: 100
[1]; [10]
  Plant response rating, Lambsquarters: 95
[1]; [11]
  Plant response rating, Lambsquarters: 80
[1]; [12]
  Plant response rating, Lambsquarters: 90
[1]; [13]
  Plant response rating, Lambsquarters: 100
[1]; [14]
  Plant response rating, Lambsquarters: 100
[2]; [6]
  Plant response rating: Russian Thistle: 95
[2]; [7]
  Plant response rating: Russian Thistle: 98
[2]; [8]
  Plant response rating: Russian Thistle: 100
[2]; [9]
  Plant response rating: Russian Thistle: 100
[2]; [10]
  Plant response rating, Russian Thistle: 95
[2]; [15]
  Plant response rating, Russian Thistle: 100
[2]; [11]
  Plant response rating, Russian Thistle: 100
[2]; [12]
  Plant response rating, Russian Thistle: 100
[2]; [13]
  Plant response rating, Russian Thistle: 100
[2]; [14]
  Plant response rating, Russian Thistle: 100
[3]; [6]
  Plant response rating: Barley, Spring: 10
[3]; [7]
  Plant response rating: Barley, Spring: 15
[3]; [8]
  Plant response rating: Barley, Spring: 15
[3]; [9]
  Plant response rating: Barley, Spring: 30
[3]; [10]
  Plant response rating, Barley, Spring: 5
[3]; [15]
  Plant response rating, Barley, Spring: 0
[3]; [11]
  Plant response rating, Barley, Spring: 0
[3]; [12]
  Plant response rating, Barley, Spring: 5
[3]; [13]
  Plant response rating, Barley, Spring: 10
[3]; [14]
  Plant response rating, Barley, Spring: 20
[4]; [6]
  Plant response rating: Barley, Winter: 15
[4]; [7]
  Plant response rating: Barley, Winter: 20
[4]; [8]
  Plant response rating: Barley, Winter: 20
[4]; [9]
  Plant response rating: Barley, Winter: 40
[4]; [10]
  Plant response rating, Barley, Winter: 10
[4]; [15]
  Plant response rating, Barley, Winter: 0
[4]; [11]
  Plant response rating, Barley, Winter: 0
[4]; [12]
  Plant response rating, Barley, Winter: 10
[4]; [13]
  Plant response rating, Barley, Winter: 15
[4]; [14]
  Plant response rating, Barley, Winter: 40
[5]; [6]
  Plant response rating: Speedwell: 100
[5]; [7]
  Plant response rating: Speedwell: 100
[5]; [8]
  Plant response rating: Speedwell: 100
[5]; [9]
  Plant response rating: Speedwell: 100
[5]; [10]
  Plant response rating, Speedwell: 60
[5]; [15]
  Plant response rating, Speedwell: 0

## COc1nn(-c2ccc(C(F)(F)F)cc2)nc1Cc1ccnc(C(F)F)c1 [Compound 138]
[1]; [6]
  Plant response rating: Lambsquarters: 80
[1]; [7]
  Plant response rating: Lambsquarters: 90
[1]; [8]
  Plant response rating: Lambsquarters: 95
[1]; [9]
  Plant response rating: Lambsquarters: 100
[1]; [10]
  Plant response rating, Lambsquarters: 70
[2]; [6]
  Plant response rating: Russian Thistle: 75
[2]; [7]
  Plant response rating: Russian Thistle: 90
[2]; [8]
  Plant response rating: Russian Thistle: 95
[2]; [9]
  Plant response rating: Russian Thistle: 100
[2]; [10]
  Plant response rating, Russian Thistle: 50
[3]; [6]
  Plant response rating: Barley, Spring: 20
[3]; [7]
  Plant response rating: Barley, Spring: 25
[3]; [8]
  Plant response rating: Barley, Spring: 35
[3]; [9]
  Plant response rating: Barley, Spring: 40
[3]; [10]
  Plant response rating, Barley, Spring: 10
[4]; [6]
  Plant response rating: Barley, Winter: 5
[4]; [7]
  Plant response rating: Barley, Winter: 15
[4]; [8]
  Plant response rating: Barley, Winter: 20
[4]; [9]
  Plant response rating: Barley, Winter: 20
[4]; [10]
  Plant response rating, Barley, Winter: 5
[5]; [6]
  Plant response rating: Speedwell: 80
[5]; [7]
  Plant response rating: Speedwell: 90
[5]; [8]
  Plant response rating: Speedwell: 98
[5]; [9]
  Plant response rating: Speedwell: 100
[5]; [10]
  Plant response rating, Speedwell: 80

## Cc1nn(-c2ccc(F)c(C(F)(F)F)c2)nc1Cc1ccnc(C(F)(F)F)c1 [Compound 156]
[1]; [6]
  Plant response rating: Lambsquarters: 90
[1]; [7]
  Plant response rating: Lambsquarters: 85
[1]; [8]
  Plant response rating: Lambsquarters: 95
[1]; [10]
  Plant response rating, Lambsquarters: 85
[1]; [15]
  Plant response rating, Lambsquarters: 25
[1]; [11]
  Plant response rating, Lambsquarters: 30
[1]; [12]
  Plant response rating, Lambsquarters: 85
[1]; [13]
  Plant response rating, Lambsquarters: 100
[2]; [6]
  Plant response rating: Russian Thistle: 85
[2]; [7]
  Plant response rating: Russian Thistle: 90
[2]; [8]
  Plant response rating: Russian Thistle: 80
[2]; [10]
  Plant response rating, Russian Thistle: 60
[3]; [6]
  Plant response rating: Barley, Spring: 20
[3]; [7]
  Plant response rating: Barley, Spring: 25
[3]; [8]
  Plant response rating: Barley, Spring: 30
[3]; [10]
  Plant response rating, Barley, Spring: 15
[3]; [15]
  Plant response rating, Barley, Spring: 5
[3]; [11]
  Plant response rating, Barley, Spring: 5
[3]; [12]
  Plant response rating, Barley, Spring: 5
[3]; [13]
  Plant response rating, Barley, Spring: 15
[4]; [6]
  Plant response rating: Barley, Winter: 20
[4]; [7]
  Plant response rating: Barley, Winter: 25
[4]; [8]
  Plant response rating: Barley, Winter: 30
[4]; [10]
  Plant response rating, Barley, Winter: 10
[4]; [15]
  Plant response rating, Barley, Winter: 5
[4]; [11]
  Plant response rating, Barley, Winter: 5
[4]; [12]
  Plant response rating, Barley, Winter: 10
[4]; [13]
  Plant response rating, Barley, Winter: 15
[5]; [15]
  Plant response rating, Speedwell: 10
[5]; [11]
  Plant response rating, Speedwell: 100
[5]; [12]
  Plant response rating, Speedwell: 100
[5]; [13]
  Plant response rating, Speedwell: 100
